The values that follow come from patent publication US8741897B2, “Glucocorticoid mimetics, methods of making them, pharmaceutical compositions and uses thereof” (Boehringer Ingelheim Pharmaceuticals Inc., priority 2003, dated 2014).

The test system of assay [1] is glucocorticoid receptor function. The assay can be described thus: one or more of the above assays (GR binding and glucocorticoid receptor cell assays: aromatase, IL-6, TAT, MMTV-Luc, IL-8, ICAM-Luc). To be noted: assay not specified per compound. Format: cell-based.
The target in assay [2] is T1, human glucocorticoid receptor (GR) complex (Homo sapiens, UniProt P04150).
T1 construct: made in house; host or cells: insect expression system (baculovirus lysate)
T1 sequence (P04150 1-777): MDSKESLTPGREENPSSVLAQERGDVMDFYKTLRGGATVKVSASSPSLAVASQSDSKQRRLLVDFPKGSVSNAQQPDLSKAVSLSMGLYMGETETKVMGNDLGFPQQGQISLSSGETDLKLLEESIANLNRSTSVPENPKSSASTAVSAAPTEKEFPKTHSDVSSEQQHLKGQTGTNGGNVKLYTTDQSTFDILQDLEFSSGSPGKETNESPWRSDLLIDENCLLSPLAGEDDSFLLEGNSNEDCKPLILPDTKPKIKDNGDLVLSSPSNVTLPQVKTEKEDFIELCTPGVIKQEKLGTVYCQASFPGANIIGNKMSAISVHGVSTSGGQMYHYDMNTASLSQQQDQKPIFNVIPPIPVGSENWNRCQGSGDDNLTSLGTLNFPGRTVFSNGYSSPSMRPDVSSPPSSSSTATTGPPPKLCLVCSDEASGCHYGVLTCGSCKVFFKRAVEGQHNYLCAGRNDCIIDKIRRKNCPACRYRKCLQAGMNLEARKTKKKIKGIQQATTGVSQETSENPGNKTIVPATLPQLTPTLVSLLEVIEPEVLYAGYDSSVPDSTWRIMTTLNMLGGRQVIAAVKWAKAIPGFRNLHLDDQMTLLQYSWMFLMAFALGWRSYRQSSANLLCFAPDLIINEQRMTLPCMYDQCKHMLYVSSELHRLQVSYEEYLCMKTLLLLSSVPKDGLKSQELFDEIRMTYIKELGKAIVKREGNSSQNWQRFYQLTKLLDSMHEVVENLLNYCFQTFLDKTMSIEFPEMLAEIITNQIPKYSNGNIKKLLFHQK
The assay can be described thus: Glucocorticoid receptor competitive binding assay (fluorescence polarization, TAMRA-labeled dexamethasone probe). To be noted: compounds of Formula (IA). The protocol:
Compounds of the invention were evaluated for binding to the steroid receptor by a fluorescence polarization competitive binding assay. Detailed descriptions for preparation of recombinant glucocorticoid receptor (GR) complex used in the assay is described in U.S. patent application Pub.
A. Glucocorticoid Receptor Competitive Binding Assay
Step 1. Characterization of the Fluorescent Probe
The wavelengths for maximum excitation and emission of the fluorescent probe should first be measured. An example of such a probe is rhodamine (TAMRA)-labeled dexamethasone.
The affinity of the probe for the steroid receptor was then determined in a titration experiment. The fluorescence polarization value of the probe in assay buffer was measured on an SLM-8100 fluorometer using the excitation and emission maximum values described above. Aliquots of expression vector lysate were added and fluorescence polarization was measured after each addition until no further change in polarization value was observed. Non-linear least squares regression analysis was used to calculate the dissociation constant of the probe from the polarization values obtained for lysate binding to the probe.
Step 2. Screening for Inhibitors of Probe Binding
This assay uses fluorescence polarization (FP) to quantitate the ability of test compounds to compete with tetramethyl rhodamine (TAMRA)-labeled dexamethasone for binding to a human glucocorticoid receptor (GR) complex prepared from an insect expression system. The assay buffer was: 10 mM TES, 50 mM KCl, 20 mM Na2MoO4.2H2O, 1.5 mM EDTA, 0.04% w/v CHAPS, 10% v/v glycerol, 1 mM dithiothreitol, pH 7.4. Test compounds were dissolved to 1 mM in neat DMSO and then further diluted to 10× assay concentration in assay buffer supplemented with 10% v/v DMSO. Test compounds were serially diluted at 10× assay concentrations in 10% DMSO-containing buffer in 96-well polypropylene plates. Binding reaction mixtures were prepared in 96-well black Dynex microtiter plates by sequential addition of the following assay components to each well: 15 μL of 10× test compound solution, 85 μL of GR-containing baculovirus lysate diluted 1:170 in assay buffer, and 50 μL of 15 nM TAMRA-labeled dexamethasone. Positive controls were reaction mixtures containing no test compound; negative controls (blanks) were reaction mixtures containing 0.7 μM to 2 μM dexamethasone. […] IC50 values were determined by iterative non-linear curve fitting of the FP signal data to a 4-parameter logistic equation.

Take `CC(C)(CC(O)(Cc1ccnc2ccccc12)C(F)(F)F)c1ccc(C(F)(F)F)cc1` (stereo not drawn) [1,1,1-Trifluoro-4-methyl-2-quinolin-4-ylmethyl-4-(4-trifluoromethylphenyl)pentan-2-ol]: the “activity as agonists of the glucocorticoid receptor function in one or more of the above assays” value (shortened to “activity as agonists”) in assay [1] is listed as “potent agonists”. For the same molecule, the “activity in the GR binding assay” value in assay [2] is “potent activity”.

For `COc1ccc(F)cc1C(C)(C)CC(O)(Cc1ccnc(C#N)c1)C(F)(F)F` (stereo not drawn) [4-[4-(5-Fluoro-2-methoxyphenyl)-2-hydroxy-4-methyl-2-trifluoromethylpentyl]pyridine-2-carbonitrile], in assay [1], the “activity as agonists” value was “potent agonists”. For the same molecule, the “activity in the GR binding assay” value in assay [2] is reported as “potent activity”.

With `Cc1cc(C#N)cc2[nH]c(CC(O)(CC(C)(C)c3cccc4c3OCC4)C(F)(F)F)cc12` (stereo not drawn) [2-[4-(2,3-Dihydrobenzofuran-7-yl)-2-hydroxy-4-methyl-2-trifluoromethylpentyl]-4-methyl-1H-indole-6-carbonitrile], the “activity as agonists” value in assay [1] is listed as “potent agonists”. Also, in assay [2], the “activity in the GR binding assay” value was “potent activity”.

For `CC(C)(CC(O)(Cc1ccnc2ccccc12)C(F)(F)F)c1cccc(Cl)c1` (stereo not drawn) [4-(3-Chlorophenyl)-1,1,1-trifluoro-4-methyl-2-quinolin-4-ylmethylpentan-2-ol], the “activity as agonists” value in assay [1] is listed as “potent agonists”. Also, the “activity in the GR binding assay” value in assay [2] is “potent activity”.

In the case of `CC(C)(CC(O)(Cc1cc2ccccc2[nH]1)C(F)(F)F)c1cccc(Cl)c1` (stereo not drawn) [4-(3-Chlorophenyl)-1,1,1-trifluoro-2-(1H-indol-2-ylmethyl)-4-methylpentan-2-ol], the “activity as agonists” value in assay [1] is reported as “potent agonists”. Besides, the “activity in the GR binding assay” value in assay [2] was “potent activity”.

Turning to `COc1ccc(F)cc1C(C)(C)CC(O)(Cc1cc(Cl)nc2ccc(Cl)cc12)C(F)(F)F` (stereo not drawn) [2-(2,6-Dichloroquinolin-4-ylmethyl)-1,1,1-trifluoro-4-(5-fluoro-2-methoxyphenyl)-4-methylpentan-2-ol], in assay [2], the “activity in the GR binding assay” value was “potent activity”.

Take `COc1ccc(F)cc1C(C)(C)CC(O)(Cc1cc2ccc(C(=O)N(C)C)cc2[nH]1)C(F)(F)F` (stereo not drawn) [2-[4-(5-Fluoro-2-methoxyphenyl)-2-hydroxy-4-methyl-2-trifluoromethylpentyl]-1H-indole-6-carboxylic acid dimethylamide]: in assay [2], the “activity in the GR binding assay” value is recorded as “potent activity”.

As to `COc1ccc(F)cc1C(C)(C)CC(O)(Cn1ccc2ncccc21)C(F)(F)F` (stereo not drawn) [1,1,1-Trifluoro-4-(5-fluoro-2-methoxyphenyl)-4-methyl-2-pyrrolo[3,2-b]pyridin-1-ylmethylpentan-2-ol], in assay [2], the “activity in the GR binding assay” value was “potent activity”.

Turning to `COc1ccc(F)cc1C(C)(C)CC(O)(Cc1cc2cc(C(=O)NCCCC(=O)O)ccc2[nH]1)C(F)(F)F` (stereo not drawn) [4-({2-[4-(5-Fluoro-2-methoxyphenyl)-2-hydroxy-4-methyl-2-trifluoromethylpentyl]-1H-indole-5-carbonyl}amino)butyric acid], in assay [2], the “activity in the GR binding assay” value was “potent activity”.

For the molecule `CNC(=O)c1ccc2[nH]c(CC(O)(CC(C)(C)c3cc(F)ccc3OC)C(F)(F)F)cc2c1` (stereo not drawn) [2-[4-(5-Fluoro-2-methoxyphenyl)-2-hydroxy-4-methyl-2-trifluoromethylpentyl]-1H-indole-5-carboxylic acid methylamide], the “activity in the GR binding assay” value in assay [2] is listed as “potent activity”.

In the case of `COc1ccc(F)cc1C(C)(C)CC(O)(Cc1cc2cc(C(=O)N3CCC(O)CC3)ccc2[nH]1)C(F)(F)F` (stereo not drawn) [{2-[4-(5-Fluoro-2-methoxyphenyl)-2-hydroxy-4-methyl-2-trifluoromethylpentyl]-1H-indol-5-yl}(4-hydroxypiperidin-1-yl)methanone], the “activity in the GR binding assay” value in assay [2] is “potent activity”.

As for `Cc1cccc2c(CC(O)(CC(C)(C)c3cc(F)ccc3O)C(F)(F)F)cc(Cl)nc12` (stereo not drawn) [2-[3-(2-Chloro-8-methylquinolin-4-ylmethyl)-4,4,4-trifluoro-3-hydroxy-1,1-dimethylbutyl]-4-fluorophenol], the “activity in the GR binding assay” value in assay [2] was “potent activity”.

Regarding `CC(C)(CC(O)(Cc1cc2ccccc2[nH]1)C(F)(F)F)c1cccc(-c2ccccc2)c1` (stereo not drawn) [4-Biphenyl-3-yl-1,1,1-trifluoro-2-(1H-indol-2-ylmethyl)-4-methylpentan-2-ol], the “activity in the GR binding assay” value in assay [2] was “potent activity”.

As to `COc1ccc(F)cc1C(C)(C)CC(O)(Cc1cc2cc(C(=O)NCC(=O)O)ccc2[nH]1)C(F)(F)F` (stereo not drawn) [({2-[4-(5-Fluoro-2-methoxyphenyl)-2-hydroxy-4-methyl-2-trifluoromethylpentyl]-1H-indole-5-carbonyl}amino)acetic acid], the “activity in the GR binding assay” value in assay [2] is reported as “potent activity”.

Regarding `CC(C)(CC(O)(Cc1[nH]c2ccccc2c1Br)C(F)(F)F)c1cccc(F)c1` (stereo not drawn) [2-(3-Bromo-1H-indol-2-ylmethyl)-1,1,1-trifluoro4-(3-fluorophenyl)-4-methylpentan-2-ol], in assay [2], the “activity in the GR binding assay” value was “potent activity”.

For the molecule `Cc1ccc(F)cc1C(C)(C)CC(O)(Cc1cc2nnccc2[nH]1)C(F)(F)F` (stereo not drawn) [1,1,1-Trifluoro-4-(5-fluoro-2-methylphenyl)-4-methyl-2-(5H-pyrrolo[3,2-c]pyridazin-6-ylmethyl)pentan-2-ol], the “activity in the GR binding assay” value in assay [2] is given as “potent activity”.

For `COc1ccc(F)cc1C(C)(C)CC(O)(Cc1cc2nc(C)ncc2[nH]1)C(F)(F)F` (stereo not drawn) [1,1,1-Trifluoro-4-(5-fluoro-2-methoxyphenyl)-4-methyl-2-(2-methyl-5H-pyrrolo[3 ,2-d]pyrimidin-6-ylmethyl)pentan-2-ol], in assay [2], the “activity in the GR binding assay” value is given as “potent activity”.

For the molecule `COc1ccc(F)cc1C(C)(C)CC(O)(Cn1ccc2cccnc21)C(F)(F)F` (stereo not drawn) [1,1,1-Trifluoro-4-(5-fluoro-2-methoxyphenyl)-4-methyl-2-pyrrolo[2,3-b]pyridin-1-ylmethylpentan-2-ol], the “activity in the GR binding assay” value in assay [2] is recorded as “potent activity”.

Regarding `CC(C)(CC(O)(Cc1cc2ccc(C(N)=O)cc2[nH]1)C(F)(F)F)c1cc(F)ccc1O` (stereo not drawn) [2-[4-(5-Fluoro-2-hydroxyphenyl)-2-hydroxy-4-methyl-2-trifluoromethylpentyl]-1H-indole-6-carboxylic acid amide], in assay [2], the “activity in the GR binding assay” value is “potent activity”.

Take `COc1ccc(F)cc1C(C)(C)CC(O)(Cc1cc2ccc(C(N)=O)cc2[nH]1)C(F)(F)F` (stereo not drawn) [2-[4-(5-Fluoro-2-methoxyphenyl)-2-hydroxy-4-methyl-2-trifluoromethylpentyl]-1H-indole-6-carboxylic acid amide]: the “activity in the GR binding assay” value in assay [2] was “potent activity”.

As for `COc1ccc(F)cc1C(C)(C)CC(O)(Cc1cc2cc(C(=O)N3CCC(=O)CC3)ccc2[nH]1)C(F)(F)F` (stereo not drawn) [1-{2-[4-(5-Fluoro-2-methoxyphenyl)-2-hydroxy-4-methyl-2-trifluoromethylpentyl]-1H-indole-5-carbonyl}piperidin-4-one], the “activity in the GR binding assay” value in assay [2] is recorded as “potent activity”.

For the molecule `COc1ccc(F)cc1C(C)(C)CC(O)(Cc1cc2ccc(C(=O)N3CCOCC3)cc2[nH]1)C(F)(F)F` (stereo not drawn) [{2-[4-(5-Fluoro-2-methoxyphenyl)-2-hydroxy-4-methyl-2-trifluoromethylpentyl]-1H-indol-6-yl}morpholin-4-ylmethanone], the “activity in the GR binding assay” value in assay [2] is listed as “potent activity”.
